Target: T1, mTOR (Homo sapiens, UniProt P42345)
T1 construct: purchased Invitrogen PR8683A
Assay: mTOR HTR-FRET assay
Type: biochemical
Conditions: read-out: Act. Level (IC50 in mTor HTR-FRET assay)
Summary of the method: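 Test compounds, taken from 10 mM DMSO stocks and diluted, were mixed with mTOR enzyme (0.200 μg/mL) in Tris buffer pH 7.4 with 100 mM NaCl, 0.1% Tween-20 and 1 mM DTT. ATP/substrate addition initiated the reaction, alongside compound-free controls.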

T1 sequence (P42345 1360-2549 limits assumed): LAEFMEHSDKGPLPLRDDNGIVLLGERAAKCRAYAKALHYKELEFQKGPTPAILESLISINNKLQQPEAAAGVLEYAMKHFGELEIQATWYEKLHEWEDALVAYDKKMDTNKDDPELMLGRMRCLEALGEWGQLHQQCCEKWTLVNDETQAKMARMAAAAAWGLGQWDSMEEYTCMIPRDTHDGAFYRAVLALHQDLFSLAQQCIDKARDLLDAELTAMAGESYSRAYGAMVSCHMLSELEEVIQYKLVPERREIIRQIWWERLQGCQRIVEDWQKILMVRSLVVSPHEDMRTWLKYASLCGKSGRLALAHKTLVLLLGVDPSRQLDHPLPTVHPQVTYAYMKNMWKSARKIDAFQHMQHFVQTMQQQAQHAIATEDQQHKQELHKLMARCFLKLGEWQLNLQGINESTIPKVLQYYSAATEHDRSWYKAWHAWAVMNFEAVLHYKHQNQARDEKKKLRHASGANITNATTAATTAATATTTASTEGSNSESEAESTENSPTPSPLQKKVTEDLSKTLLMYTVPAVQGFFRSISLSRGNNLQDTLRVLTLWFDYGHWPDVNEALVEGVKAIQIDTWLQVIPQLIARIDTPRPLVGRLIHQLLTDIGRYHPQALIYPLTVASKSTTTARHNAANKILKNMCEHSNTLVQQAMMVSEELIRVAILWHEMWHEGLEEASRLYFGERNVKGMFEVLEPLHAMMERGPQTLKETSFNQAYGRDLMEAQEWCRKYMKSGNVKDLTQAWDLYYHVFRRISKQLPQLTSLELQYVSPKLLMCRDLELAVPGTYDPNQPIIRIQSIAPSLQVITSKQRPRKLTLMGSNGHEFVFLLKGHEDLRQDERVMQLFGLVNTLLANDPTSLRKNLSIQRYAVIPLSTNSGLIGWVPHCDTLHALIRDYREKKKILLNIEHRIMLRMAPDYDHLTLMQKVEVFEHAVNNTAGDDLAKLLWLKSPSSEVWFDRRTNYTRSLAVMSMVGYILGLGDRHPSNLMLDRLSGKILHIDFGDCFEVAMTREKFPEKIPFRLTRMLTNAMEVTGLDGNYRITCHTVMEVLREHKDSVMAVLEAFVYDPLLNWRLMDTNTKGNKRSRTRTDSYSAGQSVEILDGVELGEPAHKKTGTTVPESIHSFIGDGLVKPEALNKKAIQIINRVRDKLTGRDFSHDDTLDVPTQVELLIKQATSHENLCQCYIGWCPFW

Q: With `O=C1CNc2ncc(-c3ccc(-c4nc[nH]n4)nc3)nc2N1[C@H]1CC[C@@H](O)CC1` [Example 160, 7-(6-(1H-1,2,4-triazol-3-yl)pyridin-3-yl)-1-(cis-4-hydroxycyclohexyl)-3,4-dihydropyrazino[2,3-b]pyrazin-2(1H)-one] as the molecule, how does the IC50 read?
A: 0.005 to 250 nM

Q: For `Cc1cc(-c2nc[nH]n2)c(F)cc1-c1cnc2c(n1)N([C@H]1CC[C@@H](O)CC1)C(=O)CN2` [Example 161, 7-(5-fluoro-2-methyl-4-(1H-1,2,4-triazol-3-yl)phenyl)-1-(cis-4-hydroxycyclohexyl)-3,4-dihydropyrazino[2,3-b]pyrazin-2(1H)-one], which IC50 is on record?
A: 0.005 to 250 nM

Q: With `O=C1CNc2ncc(-c3ccc(-c4nc[nH]n4)nc3)nc2N1C1CCOCC1` [Example 162, 7-(6-(1H-1,2,4-triazol-3-yl)pyridin-3-yl)-1-(tetrahydro-2H-pyran-4-yl)-3,4-dihydropyrazino[2,3-b]pyrazin-2(1H)-one] as the molecule, how does the IC50 read?
A: 0.005 to 250 nM

Q: How did the IC50 turn out when `COCCN1C(=O)CNc2ncc(-c3ccc(-c4nc[nH]n4)nc3)nc21` [Example 163, 7-(6-(1H-1,2,4-triazol-3-yl)pyridin-3-yl)-1-(2-methoxyethyl)-3,4-dihydropyrazino[2,3-b]pyrazin-2(1H)-one] was run?
A: 0.005 to 250 nM

Q: With `CCN1C(=O)CNc2ncc(-c3ccc(-c4nc[nH]n4)nc3)nc21` [Example 164, 7-(6-(1H-1,2,4-triazol-3-yl)pyridin-3-yl)-1-ethyl-3,4-dihydropyrazino[2,3-b]pyrazin-2(1H)-one] as the molecule, how does the IC50 read?
A: 0.005 to 250 nM

Q: How did the IC50 turn out when `Cc1cc(-c2nc[nH]n2)c(F)cc1-c1cnc2c(n1)N(C[C@H]1CC[C@@H](O)CC1)C(=O)CN2` [Example 165, 7-(5-fluoro-2-methyl-4-(1H-1,2,4-triazol-3-yl)phenyl)-1-((cis-4-hydroxycyclohexyl)methyl)-3,4-dihydropyrazino[2,3-b]pyrazin-2(1H)-one] was run?
A: 0.005 to 250 nM

Q: Which IC50 does the source give for `Cc1cc(-c2nc[nH]n2)c(F)cc1-c1cnc2c(n1)N(C1CCOCC1)C(=O)CN2` [Example 166, 7-(5-fluoro-2-methyl-4-(1H-1,2,4-triazol-3-yl)phenyl)-1-(tetrahydro-2H-pyran-4-yl)-3,4-dihydropyrazino[2,3-b]pyrazin-2(1H)-one] here?
A: 0.005 to 250 nM

Q: `O=C1CNc2ncc(-c3cccc4[nH]ccc34)nc2N1CCC1CCOCC1` [Example 167, 7-(1H-indol-4-yl)-1-(2-(tetrahydro-2H-pyran-4-yl)ethyl)-3,4-dihydropyrazino[2,3-b]pyrazin-2(1H)-one] was tested. Which IC50 did it give?
A: 250 to 500 nM

Q: `Cc1cc(-c2nc[nH]n2)c(F)cc1-c1cnc2c(n1)N(C[C@H]1CC[C@H](O)CC1)C(=O)CN2` [Example 168, 7-(5-fluoro-2-methyl-4-(1H-1,2,4-triazol-3-yl)phenyl)-1-((trans-4-hydroxycyclohexyl)methyl)-3,4-dihydropyrazino[2,3-b]pyrazin-2(1H)-one] was tested. Which IC50 did it give?
A: 0.005 to 250 nM

Q: `O=C1CNc2ncc(-c3ccc(-c4nc[nH]n4)nc3)nc2N1C[C@H]1CC[C@@H](O)CC1` [Example 169, 7-(6-(1H-1,2,4-triazol-3-yl)pyridin-3-yl)-1-((cis-4-hydroxycyclohexyl)methyl)-3,4-dihydropyrazino[2,3-b]pyrazin-2(1H)-one] was tested. Which IC50 did it give?
A: 0.005 to 250 nM

Q: For `O=C1CNc2ncc(-c3ccc(-c4nc[nH]n4)nc3)nc2N1[C@H]1CC[C@H](O)CC1` [Example 170, 7-(6-(1H-1,2,4-triazol-3-yl)pyridin-3-yl)-1-(trans-4-hydroxycyclohexyl)-3,4-dihydropyrazino[2,3-b]pyrazin-2(1H)-one], which IC50 is on record?
A: 0.005 to 250 nM

Q: `CO[C@H]1CC[C@H](N2C(=O)CNc3ncc(-c4ccc(-c5nc[nH]n5)nc4)nc32)CC1` [Example 171, 7-(6-(1H-1,2,4-triazol-3-yl)pyridin-3-yl)-1-(trans-4-methoxycyclohexyl)-3,4-dihydropyrazino[2,3-b]pyrazin-2(1H)-one] was tested. Which IC50 did it give?
A: 0.005 to 250 nM

Q: `CC(C)N1C(=O)CNc2ncc(-c3ccc(-c4nc[nH]n4)nc3)nc21` [Example 172, 7-(6-(1H-1,2,4-triazol-3-yl)pyridin-3-yl)-1-isopropyl-3,4-dihydropyrazino[2,3-b]pyrazin-2(1H)-one] was tested. Which IC50 did it give?
A: 0.005 to 250 nM

Q: Which IC50 does the source give for `CO[C@H]1CC[C@H](N2C(=O)CNc3ncc(-c4cc(F)c(-c5nc[nH]n5)cc4C)nc32)CC1` [Example 173, 7-(5-fluoro-2-methyl-4-(1H-1,2,4-triazol-3-yl)phenyl)-1-(trans-4-methoxycyclohexyl)-3,4-dihydropyrazino[2,3-b]pyrazin-2(1H)-one] here?
A: 0.005 to 250 nM

Q: Which IC50 does the source give for `Cc1cc(-c2nc[nH]n2)c(F)cc1-c1cnc2c(n1)N([C@H]1CC[C@H](O)CC1)C(=O)CN2` [Example 174, 7-(5-fluoro-2-methyl-4-(1H-1,2,4-triazol-3-yl)phenyl)-1-(trans-4-hydroxycyclohexyl)-3,4-dihydropyrazino[2,3-b]pyrazin-2(1H)-one] here?
A: 0.005 to 250 nM

Q: How did the IC50 turn out when `COCCN1C(=O)CNc2ncc(-c3cc(F)c(-c4nc[nH]n4)cc3C)nc21` [Example 175, 7-(5-fluoro-2-methyl-4-(1H-1,2,4-triazol-3-yl)phenyl)-1-(2-methoxyethyl)-3,4-dihydropyrazino[2,3-b]pyrazin-2(1H)-one] was run?
A: 0.005 to 250 nM

Q: With `Cc1cc(-c2nc[nH]n2)c(F)cc1-c1cnc2c(n1)N(C(C)C)C(=O)CN2` [Example 176, 7-(5-fluoro-2-methyl-4-(1H-1,2,4-triazol-3-yl)phenyl)-1-isopropyl-3,4-dihydropyrazino[2,3-b]pyrazin-2(1H)-one] as the molecule, how does the IC50 read?
A: 0.005 to 250 nM

Q: How did the IC50 turn out when `CCN1C(=O)CNc2ncc(-c3cc(F)c(-c4nc[nH]n4)cc3C)nc21` [Example 177, 1-ethyl-7-(5-fluoro-2-methyl-4-(1H-1,2,4-triazol-3-yl)phenyl)-3,4-dihydropyrazino[2,3-b]pyrazin-2(1H)-one] was run?
A: 0.005 to 250 nM

Q: With `O=C1CNc2ncc(-c3ccnc(O)c3)nc2N1CCC1CCOCC1` [Example 178, 7-(2-hydroxypyridin-4-yl)-1-(2-(tetrahydro-2H-pyran-4-yl)ethyl)-3,4-dihydropyrazino[2,3-b]pyrazin-2(1H)-one] as the molecule, how does the IC50 read?
A: 500 to 1000 nM

Q: With `Cc1cc(-c2nc[nH]n2)ncc1-c1cnc2c(n1)N(C(C)C)C(=O)CN2` [Example 179, 1-isopropyl-7-(4-methyl-6-(1H-1,2,4-triazol-3-yl)pyridin-3-yl)-3,4-dihydropyrazino[2,3-b]pyrazin-2(1H)-one] as the molecule, how does the IC50 read?
A: 0.005 to 250 nM

Q: `Cc1cc(C(N)=O)ncc1-c1cnc2c(n1)N(C(C)C)C(=O)CN2` [Example 180, 5-(8-isopropyl-7-oxo-5,6,7,8-tetrahydropyrazino[2,3-b]pyrazin-2-yl)-4-methylpicolinamide] was tested. Which IC50 did it give?
A: 0.005 to 250 nM

Q: `O=C1CNc2ncc(-c3cccc4[nH]ncc34)nc2N1CCC1CCOCC1` [Example 181, 7-(1H-indazol-4-yl)-1-(2-(tetrahydro-2H-pyran-4-yl)ethyl)-3,4-dihydropyrazino[2,3-b]pyrazin-2(1H)-one] was tested. Which IC50 did it give?
A: 0.005 to 250 nM

Q: Which IC50 does the source give for `Nc1ncc(-c2cnc3c(n2)N(CCC2CCOCC2)C(=O)CN3)cn1` [Example 182, 7-(2-aminopyrimidin-5-yl)-1-(2-(tetrahydro-2H-pyran-4-yl)ethyl)-3,4-dihydropyrazino[2,3-b]pyrazin-2(1H)-one] here?
A: 250 to 500 nM

Q: How did the IC50 turn out when `Nc1cc(-c2cnc3c(n2)N(CCC2CCOCC2)C(=O)CN3)ccn1` [Example 183, 7-(2-aminopyridin-4-yl)-1-(2-(tetrahydro-2H-pyran-4-yl)ethyl)-3,4-dihydropyrazino[2,3-b]pyrazin-2(1H)-one] was run?
A: 500 to 1000 nM

Q: Which IC50 does the source give for `CNc1ccc(-c2cnc3c(n2)N(CCC2CCOCC2)C(=O)CN3)cn1` [Example 184, 7-(6-(methylamino)pyridin-3-yl)-1-(2-(tetrahydro-2H-pyran-4-yl)ethyl)-3,4-dihydropyrazino[2,3-b]pyrazin-2(1H)-one] here?
A: 0.005 to 250 nM

Source: patent publication US11292796B2 (SIGNAL PHARMACEUTICALS, LLC, priority 2008, dated 2022)
